# Test results: US11439148B2, “Pyrimidine derivatives” (SYNGENTA PARTICIPATIONS AG, priority 2017, dated 2022)
# Tests used:
# Format in all cases: in vivo
# Setaria viridis (SETVI) [1] = assay: Adjuvant efficacy with pinoxaden, glasshouse spray test; settings: pinoxaden EC, mean over 7.5 and 15 g/ha and 3 replicates; adjuvant 0.2% v/v (none in No Adjuvant rows); % leaf area killed, 21 days after application; Tests 1-4 separate runs
# Description: (§1) The efficacy of adjuvants 1-12 as adjuvants for the herbicide pinoxaden were tested in a glasshouse against four weed species, sown into standard soil in pots and cultivated under controlled conditions in a glasshouse (at 20/16° C. day/night; 16 hours light; 65% humidity). Pinoxaden was added to the spray tank as a standard EC (emulsifiable concentrate) formulation.
# (§2) The spray tests were also carried out using pinoxaden in conjunction with adjuvants 1-12. The adjuvants were added to the spray solution at a rate of 0.2% v/v unless otherwise stated. All spray solutions also contained 10% w/w of iso-Propanol. The weed species and their BBCH growth stage at spraying were Avena fatua (AVEFA; growth stage 12), Lolium perenne (LOLPE; growth stage 13), Alopecurus myosuroides (ALOMY; growth stage 13), and Setaria viridis (SETVI; growth stage 13-14). Each spray test was replicated three times. The test plants were then grown in a glasshouse under controlled conditions (at 20/16° C. day/night; 16 hours light; 65% humidity) and watered twice a day. The efficacy of the herbicide was assessed visually and expressed as a percentage of the leaf area killed. Samples were assessed at a time period of 21 days following application. The results shown in Table 4 below are mean averages over the two rates of pinoxaden, and the three replicates.
# Lolium perenne (LOLPE) = assay: as above; settings: pinoxaden EC, mean over 7.5 and 15 g/ha and 3 replicates; adjuvant 0.2% v/v (none in No Adjuvant rows); % leaf area killed, 21 days after application; Tests 1-4 separate runs
# Description: as §1, §2
# [2] = system: Alopecurus myosuroides (ALOMY); assay: as above; settings: pinoxaden EC, mean over 7.5 and 15 g/ha and 3 replicates; adjuvant 0.2% v/v (none in No Adjuvant rows); % leaf area killed, 21 days after application; Tests 1-4 separate runs
# Description: as §1, §2
# Avena fatua (AVEFA) = assay: as above; settings: pinoxaden EC, mean over 7.5 and 15 g/ha and 3 replicates; adjuvant 0.2% v/v (none in No Adjuvant rows); % leaf area killed, 21 days after application; Tests 1-4 separate runs
# Description: as §1, §2
# [3] = system: Digitaria sanguinalis (DIGSA); assay: Adjuvant efficacy with mesotrione, glasshouse spray test; settings: mesotrione SC, mean over 30 and 60 g/ha and 3 replicates; adjuvant 0.2% v/v (none in No Adjuvant rows); % leaf area killed, 21 days after application; Tests 1-4 separate runs
# Description: (§3) The efficacy of adjuvants 1-12 as an adjuvant for the herbicide mesotrione was tested in a glasshouse against four weed species sown into standard soil in pots and cultivated under controlled conditions in a glasshouse (at 24/18° C. day/night; 16 hours light; 65% humidity). Mesotrione was added to the spray tank as a standard SC (suspension concentrate) formulation.
# (§4) The spray tests were also carried out using mesotrione in conjunction with adjuvants 1-12. The adjuvants were added to the spray solution at a rate of 0.2% v/v unless otherwise stated. All spray solutions also contained 10% w/w of iso-Propanol. The weed species and their BBCH growth stage at spraying were Brachiaria platyphylla (BRAPP; growth stage 13-14) or Brachiaria plantaginea (BRAPL; growth stage 13-14), Commelina benghalensis (COMBE; growth stage 13), Digitaria sanguinalis (DIGSA; growth stage 14), and Polygonum convolvulus (POLCO; growth stage 13-14). Each spray test was replicated three times.
# (§5) The test plants were then grown in a glasshouse under controlled conditions (at 24/18° C. day/night; 16 hours light; 65% humidity) and watered twice a day. The efficacy of the herbicide was assessed visually and expressed as a percentage of the leaf area killed. Samples were assessed at a time period of 21 days following application. The results shown in Table 3 below are mean averages over the two rates of mesotrione and the three replicates.
# [4] = system: Polygonum convolvulus (POLCO); assay: as above; settings: mesotrione SC, mean over 30 and 60 g/ha and 3 replicates; adjuvant 0.2% v/v (none in No Adjuvant rows); % leaf area killed, 21 days after application; Tests 1-4 separate runs
# Description: as §3, §4, §5
# Setaria viridis (SETVI) [5] = assay: Adjuvant efficacy with fomesafen, glasshouse spray test; settings: fomesafen sodium salt SL, mean over 100 and 200 g/ha and 3 replicates; adjuvant 0.2% v/v (none in No Adjuvant rows); % leaf area killed, 21 days after application; Tests 1-4 separate runs
# Description: as §1, with “fomesafen (as the sodium salt)” for “pinoxaden”, “24/18°” for “20/16°”, “light,” for “light;”, “Fomesafen sodium salt” for “Pinoxaden”, “SL (soluble” for “EC (emulsifiable”
# (§6) The spray tests were also carried out using fomesafen in conjunction with adjuvants 1-12. Unless otherwise stated, the adjuvants were added to the spray solution at a rate of 0.2% v/v. All spray solutions also contained 12.5% v/v of iso-Propanol to normalise the retention of the sprays on the hydrophobic plant surfaces. The weed species and their BBCH growth stage at spraying were Abutilon theophrasti (ABUTH; growth stage 12-13), Chenopodium album (CHEAL; growth stage 15), Ipomea hederacea (IPOHE; growth stage 12), and Setaria viridis (SETVI; growth stage 14). Each spray test was replicated three times. The test plants were then grown in a glasshouse under controlled conditions (at 24/18° C. day/night; 16 hours light; 65% humidity) and watered twice a day.
# (§7) The efficacy of the herbicide was assessed visually and expressed as a percentage of the leaf area killed. Samples were assessed at a time period of 21 days following application. The results shown in Table 2 below are mean averages over the two rates of fomesafen, the three replicates […].
# Ipomea hederacea (IPOHE) = assay: as above; settings: fomesafen sodium salt SL, mean over 100 and 200 g/ha and 3 replicates; adjuvant 0.2% v/v (none in No Adjuvant rows); % leaf area killed, 21 days after application; Tests 1-4 separate runs
# Description: as §1, with “fomesafen (as the sodium salt)” for “pinoxaden”, “24/18°” for “20/16°”, “light,” for “light;”, “Fomesafen sodium salt” for “Pinoxaden”, “SL (soluble” for “EC (emulsifiable”
# as §6, §7
# [6] = system: Chenopodium album (CHEAL); assay: as above; settings: fomesafen sodium salt SL, mean over 100 and 200 g/ha and 3 replicates; adjuvant 0.2% v/v (none in No Adjuvant rows); % leaf area killed, 21 days after application; Tests 1-4 separate runs
# Description: as §1, with “fomesafen (as the sodium salt)” for “pinoxaden”, “24/18°” for “20/16°”, “light,” for “light;”, “Fomesafen sodium salt” for “Pinoxaden”, “SL (soluble” for “EC (emulsifiable”
# as §6, §7
# [7] = system: Abutilon theophrasti (ABUTH); assay: as above; settings: fomesafen sodium salt SL, mean over 100 and 200 g/ha and 3 replicates; adjuvant 0.2% v/v (none in No Adjuvant rows); % leaf area killed, 21 days after application; Tests 1-4 separate runs
# Description: as §1, with “fomesafen (as the sodium salt)” for “pinoxaden”, “24/18°” for “20/16°”, “light,” for “light;”, “Fomesafen sodium salt” for “Pinoxaden”, “SL (soluble” for “EC (emulsifiable”
# as §6, §7
# [8] = system: four weed species (ABUTH, CHEAL, IPOHE, SETVI); assay: Adjuvant efficacy with fomesafen, glasshouse spray test, average over all species; settings: fomesafen sodium salt SL, mean over 100 and 200 g/ha, adjuvant 0.2% v/v (none in No Adjuvant rows), 21 days, average of ABUTH
# Description: as §1, with “fomesafen (as the sodium salt)” for “pinoxaden”, “24/18°” for “20/16°”, “light,” for “light;”, “Fomesafen sodium salt” for “Pinoxaden”, “SL (soluble” for “EC (emulsifiable”
# as §6, §7
smiles,measurement,setting,value
CCCCCCCCC=CCCCCCCCCOc1cc(OCCOCCOCCOCCOCCOCCOCCOCCOCCOCCOCCOCCOCCOCCOCCOCCOCCOCCOCCOCCOC)ncn1 [Adjuvant 11],Mean % Herbicidal Activity SETVI,Setaria viridis (SETVI) [1],84%
same,Mean % Herbicidal Activity LOLPE,Lolium perenne (LOLPE),15%
same,Mean % Herbicidal Activity ALOMY,[2],11%
same,Mean % Herbicidal Activity AVEFA,Avena fatua (AVEFA),41%
same,Mean % Herbicidal Activity DIGSA,[3],83%
same,Mean % Herbicidal Activity POLCO,[4],92%
same,Mean % Herbicidal Activity SETVI,Setaria viridis (SETVI) [5],39%
same,Mean % Herbicidal Activity IPOHE,Ipomea hederacea (IPOHE),98%
same,Mean % Herbicidal Activity CHEAL,[6],80%
same,Mean % Herbicidal Activity ABUTH,[7],48%
same,Mean % Herbicidal Activity Average over all Species,[8],66%
